Drawing on patent US10526325B2, “Bicyclic heterocyclic derivatives” (Merck Patent GmbH, priority 2015, dated 2020), this text covers IC50 and Kd for 18 molecules.

Bounds are passed on as bounds.

The target of one assay is PDHK2 (Homo sapiens (Human), UniProt Q15119). Briefly: Biochemical activity testing of PDHK2: PDC inactivation assay. The note with it: human rec PDHK2, porcine heart PDC, 5 μM ATP, read-out: IC50 PDHK2 (enzyme assay). The source says: Biochemical Activity Testing of PDHK2: PDC Inactivation Assay
The biochemical activity assay for PDHK2 is based on the inactivation of PDC through phosphorylation by PDHK2. The assay is run in two steps: the enzymatic PDHK2 reaction in which isolated PDC is phosphorylated by PDHK2 with ATP as co-substrate and the PDC activity assay in which pyruvate and NAD are converted to acetyl-CoA and NADH. The PDC activity correlates to the increase in NADH and thereby is detectable directly via the increasing fluorescence signal (Exc 340 nm, Em 450 nm). Inhibition of PDHK2 results in a lower phosphorylation status and thereby a less decrease in activity of PDC and a stronger increase in NADH fluorescence signal.
The PDC inactivation assay is performed in Greiner 384-well microtiter plates and is used for high throughput screen. 4 μl of PDHK2 (human, rec, Carna Bioscience, 10 ng/μl-137 nM final concentration) and PDC (isolated from porcine heart, Sigma-Aldrich, 20 mU/ml final concentration) are incubated in the absence or presence of the test compound (10 dilution concentrations) for 30 min at room temperature in kinase buffer (15 mM potassium phosphate buffer, pH 7.0, 60 mM KCl, 1.5 mM DTT, 2.5 mM MgCl2, 0.0125% (w/v) BSA, 0.125% Pluronic F-68). The kinase reaction is started by the addition of 4 μl ATP substrate solution (fc 5 μM in kinase buffer). After 30 min incubation at 37° C. 40 μl of PDC reaction solution (100 mM Tris/HCl, pH 7.8, 0.5 mM EDTA, 1 mM MgCl2, 50 mM NaF, 0.25 mM Coenzyme A, 5 mM pyruvate, 1 mM NAD, 5 mM DTT, 1 mM thiamine pyrophosphate) is added. The first fluorescence measurement is performed on a Perkin Elmer Envision (Exc 340 nm, Em 450 nm). The reaction is incubated for 45 min at room temperature. Afterwards a second fluorescence measurement is performed and the PDC activity is calculated by the difference between both measurements. As full value for the PDHK2 assay the inhibitor-free PDHK2 reaction is used. The pharmacological zero value used is DCA (Sigma-Aldrich) in a final concentration of 3 mM. The inhibitory values […] were determined using either the program Symyx Assay Explorer® or Condosseo® from GeneData.

For assay [1], the system named is PDH-E1alpha (pSer300) in HEK293T cells. Nature of the assay: Cellular immunofluorescence assay, PDH-E1alpha (pSer300) in HEK293T cells. The format is cell-based, human. The following applies: Homo sapiens, HEK-293T, 5 hours incubation, anti-PDH-E1alpha (pSer300) immunofluorescence, read-out: IC50 (cell data). The protocol: Cellular Assay for Determination of Compound Activities
Compound activities were determined in a cellular immunofluorescence assay. Human HEK293T cells were seeded into black 384-well plates with clear bottom and grown overnight.
Next day, test compounds were added to the wells and the plates incubated for 5 hours. Following this, cells were fixed with formaldehyde, permeabilised and blocked. The primary antibody, Anti-PDH-E1alpha (pSer300), AP1064 (Merck Millipore) was added and incubated overnight in the plate wells. Next, cells were washed and the secondary antibody, Alexa Fluor 488, goat anti-rabbit ab (A-11008, Invitrogen) was added together with Hoechst 33258 (H3569, Invitrogen) and incubated for 1 hour in the plate wells. Finally, cells were washed and the plates were measured on the laser scanning cytometer acumen hci (TTpLabtech).
The raw data were normalized against a pharmacological inhibitor control and dose response curves were generated by plotting the percent effect values using the software package Genedata screener (Genedata).

In the next assay the target is human PDHK2 (12-407) (Homo sapiens (Human), UniProt Q15119). Briefly: Isothermal titration calorimetry (ITC) binding. The note with it: ITC at 30° C., pH 7.5. The method, then: Isothermal Titration Calorimetry
ITC measurements were performed with a VP-ITC micro calorimeter (Microcal, LLC/GE Healthcare Bio-Sciences Aft Uppsala, Sweden). In general titrations were performed by titrating the protein (50 μM) to the test compound (5 μM) in 12 μl injections. All binding experiments were carried out at 30° C. In general the test compounds were diluted form DMSO stock solutions into the measurement buffer with a maximum final concentration of 1% DMSO. The measurement buffer was 20 mM HEPES, 135 mM KCl, 1 mM TCEP, 2 mM MgCl2, 15 mM NaH2PO4, pH 7.5. The human PDHK2 (12-407) was produced in E. coli as his-tagged protein and purified by affinity chromatography. The tag was removed by side specific proteolysis. Before titration the protein buffer was changed to the measurement buffer containing the same DMSO concentration as the test compound dilution. ITC data analysis was performed using Origin 7 calorimetry software from the same supplier. For most measurements a binding model of one binding site was assumed. According to the applied mathematical model it is possible to calculate the binding constant (KA), the observed binding enthalpy (ΔH^obs) as well as the stoichiometry (N) of the formed complex.
Preceding analysis the raw data was corrected for the heats of dilution by extrapolating from the saturation value from the end of titration. In order to allow for direct comparison between the respective experimental series and protein preparations the protein concentration was corrected by referencing titrations to a well behaved standard inhibitor. The apparent stoichiometry values defined the fraction of binding competent protein and compensated for relative errors in protein concentration measurements. This corrected protein concentration was used to set up ITC experiment series with test compounds. Any deviations from ideal 1:1 stoichiometry observed here were attributed to errors in compound concentration. This nominal compound concentration was corrected as well to achieve 1:1 stoichiometry in the fit.

In the case of `C[C@H]1CN(C(=O)[C@@](C)(O)C(F)(F)F)Cc2cnc(-c3ccc(F)cc3F)n21` [Compound A55, (R)-1-[(S)-3-(2,4-Difluoro-phenyl)-5-methyl-5,6-dihydro-8H-imidazo[1,5-a]pyrazin-7-yl]-3,3,3-trifluoro-2-hydroxy-2-methyl-propan-1-one], on PDHK2, the IC50 lay within 0.3 to 3 µM. Turning to `C[C@H]1CN(C(=O)[C@@](C)(O)C(F)(F)F)Cc2cnn(-c3ccccc3F)c21` [Compound A25, (R)-3,3,3-Trifluoro-1-[(S)-1-(2-fluoro-phenyl)-7-methyl-1,4,6,7-tetrahydro-pyrazolo[4,3-c]pyridin-5-yl]-2-hydroxy-2-methyl-propan-1-one], the IC50 on PDHK2 was 0.3 to 3 µM. As for `C[C@H]1CN(C(=O)[C@@](C)(O)C(F)(F)F)Cc2cnn(C3CCC(O)CC3)c21` (stereo partly drawn) [Compound A39, (R)-3,3,3-Trifluoro-2-hydroxy-1-[(S)-1-(4-hydroxy-cyclohexyl)-7-methyl-1,4,6,7-tetrahydro-pyrazolo[4,3-c]pyridin-5-yl]-2-methyl-propan-1-one], on PDHK2, the IC50 was 0.3 to 3 µM. Same read-out and setting: to `C[C@H]1CN(C(=O)[C@@](C)(O)C(F)(F)F)Cc2cnn(C(C)(C)C)c21` [Compound A23, (R)-1-((S)-1-tert-Butyl-7-methyl-1,4,6,7-tetrahydro-pyrazolo[4,3-c]pyridin-5-yl)-3,3,3-trifluoro-2-hydroxy-2-methyl-propan-1-one] belongs 3 to 50 µM.

`C[C@H]1CN(C(=O)[C@@](C)(O)C(F)(F)F)Cc2cnn(-c3ccc(F)cc3)c21` [Compound A15, (R)-3,3,3-Trifluoro-1-[(S)-1-(4-fluoro-phenyl)-7-methyl-1,4,6,7-tetrahydro-pyrazolo[4,3-c]pyridin-5-yl]-2-hydroxy-2-methyl-propan-1-one]: the IC50 (on PDHK2; in assay [1]) was 0.3 to 3 µM in each case. Turning to `C[C@@](O)(C(=O)N1CCn2c(nnc2-c2ccccc2)C1)C(F)(F)F` [Compound A48, (R)-3,3,3-Trifluoro-2-hydroxy-2-methyl-1-(3-phenyl-5,6-dihydro-8H-[1,2,4]triazolo[4,3-a]pyrazin-7-yl)-propan-1-one], the half-maximal inhibitory concentration (IC50) at PDHK2 lay within 0.3 to 3 µM. In addition, at human PDHK2 (12-407), the Kd is < 0.3 µM. As to `COc1ncc(F)c(-n2ncc3c2[C@H](C)CN(C(=O)[C@@](C)(O)C(F)(F)F)C3)n1` [Compound A36, (R)-3,3,3-Trifluoro-1-[(R)-1-(5-fluoro-2-methoxy-pyrimidin-4-yl)-7-methyl-1,4,6,7-tetrahydro-pyrazolo[4,3-c]pyridin-5-yl]-2-hydroxy-2-methyl-propan-1-one], the IC50 on PDHK2 fell in the range of 0.3 to 3 µM.

On to `C[C@H]1CN(C(=O)[C@@](C)(O)C(F)(F)F)Cc2cnn(-c3ncc(F)cc3F)c21` [Compound A35, (R)-1-[(S)-1-(3,5-Difluoro-pyridin-2-yl)-7-methyl-1,4,6,7-tetrahydro-pyrazolo[4,3-c]pyridin-5-yl]-3,3,3-trifluoro-2-hydroxy-2-methyl-propan-1-one], for which, on PDHK2, the IC50 lay within 0.3 to 3 µM. The same measure, in the same setting: to `C[C@H]1CN(C(=O)[C@@](C)(O)C(F)(F)F)Cc2cnn(-c3ccccc3C#N)c21` [Compound A27, 2-[(S)-7-Methyl-5-((R)-3,3,3-trifluoro-2-hydroxy-2-methyl-propionyl)-4,5,6,7-tetrahydro-pyrazolo[4,3-c]pyridin-1-yl]-benzonitrile] belongs 0.3 to 3 µM; to `C[C@H]1CN(C(=O)[C@@](C)(O)C(F)(F)F)Cc2cnn(-c3ccc(F)cc3F)c21` [Compound A21, (R)-1-[(S)-1-(2,4-Difluoro-phenyl)-7-methyl-1,4,6,7-tetrahydro-pyrazolo[4,3-c]pyridin-5-yl]-3,3,3-trifluoro-2-hydroxy-2-methyl-propan-1-one], 0.3 to 3 µM; to `C[C@H]1CN(C(=O)[C@@](C)(O)C(F)(F)F)Cc2cnc(-c3ncc(F)cc3F)n21` [Compound A56, (R)-1-[(S)-3-(3,5-Difluoro-pyridin-2-yl)-5-methyl-5,6-dihydro-8H-imidazo[1,5-a]pyrazin-7-yl]-3,3,3-trifluoro-2-hydroxy-2-methyl-propan-1-one], 3 to 50 µM. As for `C[C@@](O)(C(=O)N1CCc2nn(-c3ccc(Cl)cc3)cc2C1)C(F)(F)F` [Compound A2, (2R)-1-[2-(4-chlorophenyl)-6,7-dihydro-4H-pyrazolo[4,3-c]pyridin-5-yl]-3,3,3-trifluoro-2-hydroxy-2-methyl-propan-1-one], on PDHK2, the IC50 lay in the range of 3 to 50 µM. Also, the Kd at human PDHK2 (12-407) fell in the range of 0.3 to 3 µM.

On to `C[C@H]1CN(C(=O)[C@@](C)(O)C(F)(F)F)Cc2cnn(-c3ccc(F)cn3)c21` [Compound A41, (R)-3,3,3-Trifluoro-1-[(S)-1-(5-fluoro-pyridin-2-yl)-7-methyl-1,4,6,7-tetrahydro-pyrazolo[4,3-c]pyridin-5-yl]-2-hydroxy-2-methyl-propan-1-one], for which, on PDHK2, the IC50 fell in the range of 3 to 50 µM. Regarding `C[C@@H]1CN(C(=O)C(C)(C)O)Cc2cnn(-c3ccc(F)cc3)c21` [Compound A42, 1-[(R)-1-(4-Fluoro-phenyl)-7-methyl-1,4,6,7-tetrahydro-pyrazolo[4,3-c]pyridin-5-yl]-2-hydroxy-2-methyl-propan-1-one], the IC50 on PDHK2 was in the range of 0.3 to 3 µM. The Kd on human PDHK2 (12-407) was < 0.3 µM. On to `C[C@@H]1CN(C(=O)[C@@](C)(O)C(F)(F)F)Cc2cnn(-c3ccccc3C#N)c21` [Compound A26, 2-[(R)-7-Methyl-5-((R)-3,3,3-trifluoro-2-hydroxy-2-methyl-propionyl)-4,5,6,7-tetrahydro-pyrazolo[4,3-c]pyridin-1-yl]-benzonitrile], for which the IC50 on PDHK2 lay in the range of 3 to 50 µM. The same measure, in the same setting: as for `C[C@H]1CN(C(=O)[C@@](C)(O)C(F)(F)F)Cc2cnc(-c3ccc(F)cc3)n21` [Compound A53, (R)-3,3,3-Trifluoro-1-[(S)-3-(4-fluoro-phenyl)-5-methyl-5,6-dihydro-8H-imidazo[1,5-a]pyrazin-7-yl]-2-hydroxy-2-methyl-propan-1-one], the figure is 3 to 50 µM.

As for `C[C@H]1CN(C(=O)[C@@](C)(O)C(F)(F)F)Cc2cnn(-c3ncccc3F)c21` [Compound A33, (R)-3,3,3-Trifluoro-1-[(S)-1-(3-fluoro-pyridin-2-yl)-7-methyl-1,4,6,7-tetrahydro-pyrazolo[4,3-c]pyridin-5-yl]-2-hydroxy-2-methyl-propan-1-one], the 50% inhibitory concentration (IC50) at PDHK2 was 3 to 50 µM. As for `C[C@H]1CN(C(=O)[C@@](C)(O)C(F)(F)F)Cc2cn[nH]c21` [Compound A29, (R)-3,3,3-Trifluoro-2-hydroxy-2-methyl-1-((S)-7-methyl-1,4,6,7-tetrahydro-pyrazolo[4,3-c]pyridin-5-yl)-propan-1-one], on PDHK2, the IC50 lay in the range of 0.3 to 3 µM. Besides, the Kd at human PDHK2 (12-407) is 0.3 to 3 µM.
